# Measured values reported in PMC5681660, “Reduced hepatitis B and D viral entry using clinically applied drugs as novel inhibitors of the bile acid transporter NTCP” (Scientific Reports, 2017).
# Counter-ions that a name gives are not always drawn. Like-named read-outs stand apart in the source and are kept apart here.
# What was measured:
# [1] = biological target: T1, human NTCP (Homo sapiens, UniProt Q14973); test: Screening fluorescent competitive Myrcludex B-FITC binding assay (96-well, 10 µM drug)
# T1 sequence (Q14973 1-349): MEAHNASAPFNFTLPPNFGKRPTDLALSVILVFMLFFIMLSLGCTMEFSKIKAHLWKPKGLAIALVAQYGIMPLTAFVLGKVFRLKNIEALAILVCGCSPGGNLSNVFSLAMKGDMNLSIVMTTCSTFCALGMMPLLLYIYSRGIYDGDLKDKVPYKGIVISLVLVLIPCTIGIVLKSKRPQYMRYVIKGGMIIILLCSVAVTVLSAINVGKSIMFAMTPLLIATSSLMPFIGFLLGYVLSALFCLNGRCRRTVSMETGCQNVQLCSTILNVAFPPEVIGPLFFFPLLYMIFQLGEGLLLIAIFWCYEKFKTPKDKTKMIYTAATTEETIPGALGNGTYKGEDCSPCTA
# [2] = biological target: T1, human NTCP; test: Screening taurocholate uptake assay (96-well, [14C]taurocholate, 10 µM drug)
# [3] = Prestwick library screen, Myrcludex B-FITC binding, 10 µM drug
# [4] = Prestwick library screen, taurocholate uptake, 10 µM drug
# [5] = ranking score beside the functional and binding assay B-scores of the screen
# [6] = screen, 10 µM drug, Myrcludex B-FITC binding
# [7] = combined ranking from functional and binding screening assays
# [8] = screen, 10 µM drug, taurocholate uptake
# [9] = Prestwick library screen, 10 µM drug, B-score of Myrcludex B-FITC binding
# [10] = Prestwick library screen, 10 µM drug, B-score of taurocholate uptake
# [11] = combined ranking from functional and binding assay B-scores
Compound,"B-score binding assay [1, 6]","Ranking score [2, 7]","B-score functional assay [2, 8]",other results
CCN(CC)CC#CCOC(=O)C(O)(c1ccccc1)C1CCCCC1 (stereo not drawn) [Oxybutynin chloride],,,,"B-score binding assay [1, 3]: 0.285; B-score functional assay [2, 4]: 0.163; Ranking score [2, 5]: 808.614"
CCCSc1ccc2nc(NC(=O)OC)[nH]c2c1 [Albendazole],,,,B-score binding assay [1]: 0.993; B-score functional assay [2]: -0.13; Ranking score [2]: 731.855
COc1ccc2c(c1)C(=O)N(CCc1ccc(S(=O)(=O)NC(=O)NC3CCCCC3)cc1)C(=O)C2(C)C [Gliquidone],1.024,336.107,-2.316,
CC1=C(C(=O)O)N2C(=O)[C@@H](NC(=O)[C@H](N)c3ccc(O)cc3)[C@H]2SC1 [Cefadroxil],-0.675,439.805,-0.032,
NC(N)=Nc1nc(CSCCC(N)=NS(N)(=O)=O)cs1 [Famotidine],,,,"B-score binding assay [1, 3]: 0.039; B-score functional assay [2, 4]: 0.754; Ranking score [2, 5]: 828.628"
CC(Cc1ccc(O)cc1)NCC(O)c1cc(O)cc(O)c1 (stereo not drawn) [Fenoterol hydrobromide],-1.328,457.393,1.4,
O=c1[nH]c(=O)n([C@H]2C[C@H](O)[C@@H](CO)O2)cc1C(F)(F)F [Trifluridine],,,,"B-score binding assay [1, 9]: 2.847; B-score functional assay [2, 10]: 0.173; Ranking score [2, 11]: 994.589"
CCN(CC)CC(=O)Nc1c(C)cccc1C [Lidocaine hydrochloride],,,,"B-score binding assay [1, 3]: 0.07; B-score functional assay [2, 4]: 0.516; Ranking score [2, 5]: 815.009"
CC(C(=O)O)c1ccc2c(c1)Cc1cccnc1O2 (stereo not drawn) [Pranoprofen],,,,"B-score binding assay [1, 3]: 1.204; B-score functional assay [2, 4]: -0.016; Ranking score [2, 5]: 817.912"
C[C@]12C=CC(=O)C=C1CC[C@H]1[C@@H]3C[C@@H](O)[C@](O)(C(=O)CO)[C@@]3(C)C[C@H](O)[C@@]12F [Triamcinolone],,,,"B-score binding assay [1, 3]: -0.283; B-score functional assay [2, 4]: 1.923; Ranking score [2, 5]: 735.139"
C[C@H]1NC(=O)NC1=O [Methylhydantoin-5-(D)],-1.862,290.241,0.047,
Nc1nc(O)c2ncn(COC(CO)CO)c2n1 [Ganciclovir],0.144,278.51,-2.412,
CC(C)C(=O)c1c(C(C)C)nn2ccccc12 [Ibudilast],,,,"B-score binding assay [1, 9]: 0.677; B-score functional assay [2, 10]: 0.276; Ranking score [2, 11]: 895.497"
O=C(NCCN1CCOCC1)c1ccc(Cl)cc1 [Moclobemide],,,,"B-score binding assay [1, 3]: -0.149; B-score functional assay [2, 4]: 1.399; Ranking score [2, 5]: 766.363"
O=C1c2ccccc2S(=O)(=O)N1CCCCN1CCN(c2ncccn2)CC1 [Ipsapirone],,,,"B-score binding assay [1, 9]: 0.854; B-score functional assay [2, 10]: 1.921; Ranking score [2, 11]: 1093.42"
CCN1CCN(c2cc3c(cc2F)c(=O)c(C(=O)O)cn3C2CC2)CC1 [Enrofloxacin],,,,"B-score binding assay [1, 3]: 0.083; B-score functional assay [2, 4]: 0.028; Ranking score [2, 5]: 706.109"
COC(=O)[C@H](c1ccccc1Cl)N1CCc2sccc2C1 [Clopidogrel],-1.412,419.199,0.915,
CC(=O)OCC(=O)[C@@]12N=C(C)O[C@@H]1C[C@H]1[C@@H]3CCC4=CC(=O)C=C[C@]4(C)[C@H]3[C@@H](O)C[C@@]12C [Deflazacort],-0.898,446.866,0.131,
NS(=O)(=O)c1cc2c(cc1Cl)NC(C(Cl)Cl)NS2(=O)=O (stereo not drawn) [Trichlormethiazide],,,,"B-score binding assay [1, 9]: 0.486; B-score functional assay [2, 10]: 0.593; Ranking score [2, 11]: 921.314"
CC(C)(Oc1ccc(CCNC(=O)c2ccc(Cl)cc2)cc1)C(=O)O [Bezafibrate],0.184,430.871,-1.123,
Nc1ccn([C@@H]2CS[C@H](CO)O2)c(=O)n1 [Lamivudine],-1.334,411.191,0.533,
O=c1[nH]cc(F)c(=O)[nH]1 [5-fluorouracil],-1.388,327.242,-0.016,

Compound,"B-score binding assay [1, 6]","Ranking score [2, 7]","B-score functional assay [2, 8]",other results
CCCCNc1ccc(C(=O)OCCN(C)C)cc1.Cl [Tetracaïne hydrochloride],,,,"B-score binding assay [1, 9]: 2.591; B-score functional assay [2, 10]: 0.799; Ranking score [2, 11]: 1118.05"
COc1ccc(CN2CCNCC2)c(OC)c1OC [Trimetazidine dihydrochloride],-1.545,350.668,0.211,
CCCCC1C(=O)N(c2ccccc2)N(c2ccccc2)C1=O [Phenylbutazone],-0.956,440.765,0.138,
CC(C)NCC(O)c1ccc(NS(C)(=O)=O)cc1 (stereo not drawn) [Sotalol hydrochloride],,,,"B-score binding assay [1, 9]: 0.649; B-score functional assay [2, 10]: 0.17; Ranking score [2, 11]: 866.77"
CC1(C)S[C@@H]2[C@H](NC(=O)Cc3ccccc3)C(=O)N2[C@H]1C(=O)O [Benzylpenicillin sodium],-1.247,344.346,-0.043,
Cc1ccc(-c2ncc(Cl)cc2-c2ccc(S(C)(=O)=O)cc2)cn1 [Etoricoxib],-0.254,393.756,-0.663,
NC(=O)C(c1ccccc1)(c1ccccc1)[C@@H]1CCN(CCc2ccc3c(c2)CCO3)C1 [Darifenacin hydrobromide],,,,B-score binding assay [1]: 0.023; B-score functional assay [2]: 2.058; Ranking score [2]: 899.12
CN(C)CCCN1c2ccccc2Sc2ccc(C(F)(F)F)cc21 [Triflupromazine hydrochloride],-0.314,447.888,-0.264,
CC1(C)O[C@@H]2C[C@H]3[C@@H]4C[C@H](F)C5=CC(=O)CC[C@]5(C)[C@H]4[C@@H](O)C[C@]3(C)[C@]2(C(=O)CO)O1 [Flurandrenolide],-0.083,407.676,-0.782,
CCCCc1oc2ccccc2c1C(=O)c1cc(I)c(OCCN(CC)CC)c(I)c1 [Amiodarone hydrochloride],,,,"B-score binding assay [1, 3]: 1.025; B-score functional assay [2, 4]: 0.027; Ranking score [2, 5]: 845.421"
CC(=O)[C@H]1CC[C@H]2[C@@H]3C[C@H](C)C4=CC(=O)CC[C@]4(C)[C@H]3[C@@H](O)C[C@]12C [Medrysone],-0.142,406.005,-0.706,
CC(C(O)c1ccc(O)cc1)N1CCC(Cc2ccccc2)CC1.CC(C(O)c1ccc(O)cc1)N1CCC(Cc2ccccc2)CC1.O=C(O)C(O)C(O)C(=O)O (stereo not drawn) [Ifenprodil tartrate],,,,"B-score binding assay [1, 3]: -0.263; B-score functional assay [2, 4]: 1.465; Ranking score [2, 5]: 727.635"
CC(C)COCC(CN(Cc1ccccc1)c1ccccc1)N1CCCC1 (stereo not drawn) [Bepridil hydrochloride],-1.626,392.989,1.07,
C[C@]12CC[C@@H]3c4ccc(O)cc4C[C@@H](CCCCCCCCC[S+]([O-])CCCC(F)(F)C(F)(F)F)[C@H]3[C@@H]1CC[C@@H]2O (stereo partly drawn) [Fulvestrant],,,,"B-score binding assay [1, 3]: -0.303; B-score functional assay [2, 4]: 1.208; Ranking score [2, 5]: 701.076"
C=CCSCC1Nc2cc(Cl)c(S(N)(=O)=O)cc2S(=O)(=O)N1 (stereo not drawn) [Althiazide],,,,"B-score binding assay [1, 9]: 0.861; B-score functional assay [2, 10]: 0.092; Ranking score [2, 11]: 866.45"
NCCCC(O)(P(=O)(O)O)P(=O)(O)O [Alendronate sodium],-0.968,453.598,0.279,
CC1=NS(=O)(=O)c2cc(Cl)ccc2N1 [Diazoxide],-0.26,331.971,-1.121,
C[C@]12CC[C@H](O)C[C@H]1CC[C@@H]1[C@@H]2CC[C@]2(C)[C@@H](C3=CC(=O)OC3)CC[C@]12O [Digitoxigenin],1.274,348.633,-2.282,
CC(=O)CC(c1ccccc1)c1c(O)c2ccccc2oc1=O (stereo not drawn) [Warfarin],0.123,391.491,-1.345,
Nc1ncnc2c1ncn2[C@@H]1O[C@H](COP(=O)(O)O)[C@@H](O)[C@H]1O.O [Adenosine 5'-monophosphate monohydrate],,,,"B-score binding assay [1, 9]: 2.827; B-score functional assay [2, 10]: 0.641; Ranking score [2, 11]: 1091.98"
CC=CC1=C(C(=O)O)N2C(=O)[C@@H](NC(=O)[C@H](N)c3ccc(O)cc3)[C@H]2SC1 [Cefprozil],-1.441,364.678,0.201,
CCN(CC)CCCC(C)Nc1c2ccc(Cl)cc2nc2ccc(OC)cc12.Cl.Cl (stereo not drawn) [Quinacrine dihydrochloride hydrate],7.101,399.375,-2.093,
